According to patent US10941126B2, “Bridged bicycloalkyl-substituted aminothiazoles and their methods of use” (Temple University—Of The Commonwealth System of Higher …, priority 2017, dated 2021):

How the values were obtained:
YB5 cells [1] = test: GFP reactivation in YB5 cells (flow cytometry); type: cell-based, human
Source text: To screen the compounds of the invention for epigenetic anti-cancer activity the YB5 cell-based system, which is derived from the human colon cancer cell line SW48, was used (Si et al., 2010, Cancer Res. 70:6968-6977; Raynal et al., 2012, Cancer Res. 72:1170-1181). YB5 cells contain a single insertion of cytomegalovirus (CMV) promoter driving green fluorescent protein (GFP) gene. GFP expression is silenced in >99.9% of YB5 cells by epigenetic mechanisms. In YB5 cells, the inserted GFP gene behaves similarly to endogenous tumor suppressor genes (TSGs) silenced by epigenetic mechanisms, and it can be reactivated by epigenetic anti-cancer agents such as DNA methylation inhibitors and/or HDAC inhibitors such as depsipeptide (Si et al., 2010, Cancer Res. 70:6968-6977; Raynal et al., 2012, Cancer Research, 72:1170-1181; Wu et al., 2008, Mol. Cell Biol, 28:3219-3235). Thus, reactivation of GFP expression and the resulting fluorescence is a measure of epigenetic anti-cancer activity.
The following procedure may be used to identify compounds of useful in the invention. YB5 cells cultured in L-15 medium supplemented with 10% fetal bovine serum and 1% P/S are treated for 24 hours with varying concentrations (50 nM, 100 nM, 500 nM, 1 μM, 5 μM, 10 μM, 25 μM, and 50 μM) of test compounds. After treatment, cells are trypsinized and re-suspended in cell culture media with propidium iodide (PI) to stain dead cells. Reactivation of GFP is measured using flow cytometry to identify the GFP positive population. The relative activities are expressed as the percent of the response compared to treatment with 20 nM HDACi depsipeptide for 24 hours. YB5 cells are grown in 1% CO2 atmosphere at 37° C.
NDL-3040 compound library consists of 3040 chemically diverse compounds that are semi-natural, derived from natural compounds, or synthetic compounds that are natural-compound-like. The small molecules were arrayed in 96-well plates as 10 mM stocks in 100% DMSO and were purchased from TimTec Inc. An aminothiazole analog library (93 small molecules) was also purchased from the same vendor and was in a 96-well plate format as 10 mM stocks in 100% DMSO. The 3040 compounds were screened at 25 μM for 24 hr. All plates were kept at −80° C. before use. YB5 cells growing in log phase (70-80% confluency) in 96-well plates were used. Each experimental 96-well plate contained 80 different compounds. Compounds were dispensed using an INTEGRA VIAFLO96 96-well pipette. After a 24 hr drug treatment, cells were trypsinized for 10 mins and re-suspended in L-15 medium containing propidium iodide (PI) to stain for dead cells. A total of 10000 cells per well were analyzed using Millipore Guava flow cytometer (EMD, Millipore). GFP positive percentage was calculated by excluding all the PI positive cells. After finishing the screening, the average Z-factor
For drug screening and dose response validations, GFP positive cells were detected by Millipore Guava flow cytometer (EMD, Millipore). Cell cycle analysis was performed using BD FACSCalibur™ by propidium iodide staining four days after drug treatment. Sub-G1 population percentage was also included to measure apoptotic cell proportion. Data were analyzed using FlowJo software version 10.2. For the cell differentiation analysis, cells were washed and stained with propidium iodide (PI), CD11 b (BD Biosciences, #562793) and the isotype control IgG (BD Biosciences, #555748). Flow cytometry analysis was performed on a Millipore Guava flow cytometer (EMD, Millipore). For the ID8 in vivo experiments, ascites was drained from 5-10 mice per group and incubated in ACK buffer (Thermo Fisher) to lyse red blood cells for 10 minutes, then washed. Ascites from each mouse was individually lysed and prepared for flow cytometry. Mononuclear cells collected were cultured for 4 hours in RPMI with 5% Fetal Bovine Serum and in the presence of Cell Stimulation Cocktail (plus protein transport inhibitors; eBioscience). […]

CDK9 = target: T1, CDK9 (Homo sapiens, UniProt P50750); test: Kinase enzymatic assay (Nanosyn, microfluidic), IC50 curves against CDKs; type: biochemical
T1 construct: Nanosyn (contract assay)
T1 sequence (P50750 whole entry): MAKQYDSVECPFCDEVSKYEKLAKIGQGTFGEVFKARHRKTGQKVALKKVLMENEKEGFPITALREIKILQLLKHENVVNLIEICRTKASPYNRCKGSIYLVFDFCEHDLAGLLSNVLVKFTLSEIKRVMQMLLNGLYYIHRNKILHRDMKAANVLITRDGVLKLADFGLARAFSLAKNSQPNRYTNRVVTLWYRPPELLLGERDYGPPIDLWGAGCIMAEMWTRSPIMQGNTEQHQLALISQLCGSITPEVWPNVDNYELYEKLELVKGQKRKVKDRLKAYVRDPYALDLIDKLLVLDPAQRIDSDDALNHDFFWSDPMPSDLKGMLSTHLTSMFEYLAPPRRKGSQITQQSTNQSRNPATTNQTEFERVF
T1 sequence (O60563 whole entry partner): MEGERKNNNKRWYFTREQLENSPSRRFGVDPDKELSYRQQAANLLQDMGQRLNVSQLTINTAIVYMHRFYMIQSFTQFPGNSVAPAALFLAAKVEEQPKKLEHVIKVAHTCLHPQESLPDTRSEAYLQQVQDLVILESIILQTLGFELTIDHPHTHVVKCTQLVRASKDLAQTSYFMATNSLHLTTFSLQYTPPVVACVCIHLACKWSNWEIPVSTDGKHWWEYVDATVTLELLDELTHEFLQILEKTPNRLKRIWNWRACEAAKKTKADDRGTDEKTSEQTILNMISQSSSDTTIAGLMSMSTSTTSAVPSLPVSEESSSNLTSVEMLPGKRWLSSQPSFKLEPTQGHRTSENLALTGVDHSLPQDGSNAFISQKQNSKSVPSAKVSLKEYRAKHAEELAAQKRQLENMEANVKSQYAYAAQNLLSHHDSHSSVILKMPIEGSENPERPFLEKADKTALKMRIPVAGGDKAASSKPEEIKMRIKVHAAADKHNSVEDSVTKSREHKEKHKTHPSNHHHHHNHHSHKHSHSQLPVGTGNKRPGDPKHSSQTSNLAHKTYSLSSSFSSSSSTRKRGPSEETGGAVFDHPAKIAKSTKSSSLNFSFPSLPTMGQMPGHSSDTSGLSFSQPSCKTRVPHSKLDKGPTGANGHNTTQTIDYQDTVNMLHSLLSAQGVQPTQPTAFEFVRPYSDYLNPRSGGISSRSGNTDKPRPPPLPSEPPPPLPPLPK
Procedure: (§1) HDAC inhibitory activity assays were performed using FLUOR DE LYS® HDAC fluorometric activity assay kit from Enzo following the manufacturer's instructions. GloMax®-Multi Detection System (Promega) was used to read the fluorescence signals. Histone methyltransferase and demethylase enzymatic assays were performed by BPS Bioscience at 10 μM in duplicates. Kinase enzymatic assays were performed by Nanosyn using microfluidic technology. 250 kinome screening was done in duplicates using MC180295 at 1 μM. IC50 curves against 10 CDKs were created for MC180295. The human kinome tree was annotated using the online Kinome Render software (Chartier, M., Chénard, T., Barker, J., and Najmanovich, R. (2013). PeerJ 1, e126). Isotope kinase assay was performed using previously described methods (Garriga, J., Peng, J., Parreño, M., Price, D. H., Henderson, E. E., and Graña, X. (1998). Oncogene 17, 3093-3102) using recombinant active full-length CDK9/CyclinT1 (Millipore, 14-685) and SMARCA4 (Abcam, ab82237) in the presence or absence of CDK9 inhibitors.

panel of 250 kinases = test: 250 kinome screening at 1 μM; type: biochemical, human
Procedure: as §1

GSK-3a = target: T2, GSK-3a (Homo sapiens, UniProt P49840); test: 250 kinome screening at 1 μM; type: biochemical
T2 construct: Nanosyn (contract assay)
T2 sequence (P49840 whole entry): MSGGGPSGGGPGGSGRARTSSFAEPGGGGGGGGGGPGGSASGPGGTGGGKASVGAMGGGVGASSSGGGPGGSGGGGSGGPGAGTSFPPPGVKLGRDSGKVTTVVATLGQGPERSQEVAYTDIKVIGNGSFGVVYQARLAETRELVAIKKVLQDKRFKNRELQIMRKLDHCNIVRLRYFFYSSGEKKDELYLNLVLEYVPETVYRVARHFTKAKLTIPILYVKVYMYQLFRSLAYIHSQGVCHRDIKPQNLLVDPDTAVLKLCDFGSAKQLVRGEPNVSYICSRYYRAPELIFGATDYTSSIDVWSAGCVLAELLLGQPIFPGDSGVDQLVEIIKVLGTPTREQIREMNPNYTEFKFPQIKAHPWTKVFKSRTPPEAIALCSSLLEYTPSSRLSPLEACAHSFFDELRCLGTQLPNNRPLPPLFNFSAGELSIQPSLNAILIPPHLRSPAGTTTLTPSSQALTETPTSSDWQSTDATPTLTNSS
Procedure: as §1

GSK-3β = target: T3, GSK-3β (Homo sapiens, UniProt P49841); test: 250 kinome screening at 1 μM; type: biochemical
T3 construct: Nanosyn (contract assay)
T3 sequence (P49841 whole entry): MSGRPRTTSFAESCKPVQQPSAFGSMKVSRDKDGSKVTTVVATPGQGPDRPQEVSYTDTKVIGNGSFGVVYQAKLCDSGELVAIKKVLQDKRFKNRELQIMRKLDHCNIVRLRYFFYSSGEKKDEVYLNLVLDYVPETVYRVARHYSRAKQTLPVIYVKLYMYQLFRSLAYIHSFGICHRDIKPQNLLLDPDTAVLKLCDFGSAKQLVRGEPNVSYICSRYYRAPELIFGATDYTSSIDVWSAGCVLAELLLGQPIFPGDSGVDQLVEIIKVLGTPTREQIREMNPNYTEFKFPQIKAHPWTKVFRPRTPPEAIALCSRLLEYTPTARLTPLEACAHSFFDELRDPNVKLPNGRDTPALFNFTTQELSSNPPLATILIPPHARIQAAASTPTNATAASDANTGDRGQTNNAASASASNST
Procedure: as §1

[2] = test system: cancer cell lines and normal IMR90 cells; test: Anti-proliferation assay (trypan blue exclusion); type: cell-based, human; details: four days after one-time exposure
Procedure: Cells were seeded in 96-well plates at 40% confluency in triplicates. Fresh medium was changed the next day and drugs were added directly. After mixing thoroughly, plates were cultured in a 37° C. incubator for two more days. Drug-free fresh medium was changed the fourth day. The cells were collected on day 5 by trypsin, suspended in medium, mixed with trypan blue (1:1 ratio), and counted using LUNA II automated cell counter. Each sample was counted at least three times and the average numbers were used for the analysis. Each treatment condition was performed at least in triplicates.

YB5 cells [3] = test: GFP reactivation in YB5 cells (flow cytometry); type: cell-based, human; details: YB5 cells, one-time 4-day treatment

IC50 (CDK9): 5 nM
selectivity for CDK9 over other CDKs (CDK9; 10 different CDKs): at least 22 fold
inhibition (GSK-3a): inhibited
inhibition (GSK-3β): inhibited
Structure (SMILES): Nc1nc(N[C@H]2CC3CCC2C3)sc1C(=O)c1ccccc1[N+](=O)[O-] (some centres unmarked) [MC180295]
relative activity to Depsipeptide @ 500 nM % (YB5 cells [1]; 500 nM): 14.10%
relative activity to Depsipeptide @ 50 μM % (YB5 cells [1]; 50 μM): 23.32%
Emax at 1 µM (YB5 cells [1]; Homo sapiens, 24 h, read-out: relative activity to Depsipeptide @ 1 μM %): 28.8%
Emax at 5 µM (YB5 cells [1]; Homo sapiens, 24 h, read-out: relative activity to Depsipeptide @ 5 μM %): 65.4%
Emax at 10 µM (YB5 cells [1]; Homo sapiens, 24 h, read-out: relative activity to Depsipeptide @ 10 μM %): 72.8%
Emax at 25 µM (YB5 cells [1]; Homo sapiens, 24 h, read-out: relative activity to Depsipeptide @ 25 μM %): 73.3%
GFP+ cells (YB5 cells [1]; at 500 nM): ~60%
selectivity against a panel of 250 kinases (panel of 250 kinases): highly selective against CDKs
reduction of proliferation, cancer cells vs normal cells (IMR90) [2]: more effective in reducing proliferation of cancer cells than normal control cells
concentration at which active (GFP re-expression) (YB5 cells [3]): 50 nM
